According to patent US20070293475A1, “ARYL AND HETEROARYL TETRAHYDROBENZAZEPINE DERIVATIVES AND THEIR USE FOR TREATING GLAUCOMA” (ALCON MAN[…]., priority 2006, published 2007):

Tests used:
[1] = target: T1, human serotonin receptor clone 5-HT2C (Homo sapiens, UniProt P28335); assay: h5-HT2 functional assay, CHO-K1 aequorin luminescence (5-HT2C); type: cell-based; conditions: for Emax: CHO-K1, relative to the response of 5-HT, read-out: h5-HT 2C (Emax); for EC50: CHO-K1 cells, aequorin, Gα16, read-out: h5-HT 2C EC50
T1 construct: expressed in transfected cells; host or cells: CHO-K1 cells stably expressing aequorin and Galpha16
T1 sequence (P28335 33-458): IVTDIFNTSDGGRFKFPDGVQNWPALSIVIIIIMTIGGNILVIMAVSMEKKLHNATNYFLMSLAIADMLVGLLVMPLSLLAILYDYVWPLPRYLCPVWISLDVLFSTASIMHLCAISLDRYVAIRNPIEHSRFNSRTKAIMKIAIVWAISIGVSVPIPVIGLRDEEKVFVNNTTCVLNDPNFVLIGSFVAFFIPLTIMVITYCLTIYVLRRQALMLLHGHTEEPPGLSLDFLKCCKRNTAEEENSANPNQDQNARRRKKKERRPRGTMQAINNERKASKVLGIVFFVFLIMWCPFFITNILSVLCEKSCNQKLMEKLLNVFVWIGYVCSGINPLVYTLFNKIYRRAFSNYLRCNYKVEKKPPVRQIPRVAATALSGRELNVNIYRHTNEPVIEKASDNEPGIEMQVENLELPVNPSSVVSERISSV
Description: (§1) Functional response at the 5-HT2 receptor subtypes was determined using CHO-K1 cells stably expressing mitochondrially-targeted bioluminescent aequorin, Gα16, and one of either human serotonin receptor clone 5-HT2A, 5-HT2B , or 5-HT2C. Prior to testing, cells were loaded in suspension with coelenterazine for 4-16 hours and directly injected onto different concentrations of the test compound. Light emitted from the cells was measured 20-30 seconds following receptor activation. A luminometer (Hamamatsu, FDSS-6000) was used to record luminescence in response to the test compound. The mean response signal at each of 8-11 different concentrations was integrated to provide an estimation of receptor activation, expressed as the EC50 value. The efficacy of the response (Emax) at the 5-HT2A and 5-HT2B receptors is expressed relative to the response of α-methyl-5-HT under the same assay conditions while the efficacy at 5-HT2C is expressed relative to the response of 5-HT.

[2] = target: T2, r5-HT2A (Rattus norvegicus, UniProt P14842); assay: r5-HT2A functional assay: FLIPR, intracellular calcium mobilization in A7r5 cells; type: cell-based; conditions: for EC50: FLIPR, rat A7r5 vascular smooth muscle cells, read-out: r5-HT 2A EC50; for Emax: percentage of maximum 5-HT-induced response, A7r5 cells, read-out: r5-HT 2A (Emax)
T2 construct: endogenous in cells; host or cells: A7r5 rat vascular smooth muscle cells
Description: r5-HT2A Functional Assay: FLIPR
Rat Vascular Smooth Muscle Cells
(§2) The receptor-mediated mobilization of intracellular calcium ([Ca^2+]i) was studied using the Fluorescence Imaging Plate Reader (FLIPR) instrument. Rat vascular smooth muscle cells, A7r5, were grown in a normal media of DMEM/10% FBS and 10 μg/ml gentamycin. Confluent cell monolayers were trypsinized, pelleted, and re-suspended in normal media. Cells were seeded in a 50 μL volume at a density of 20,000 cells per well in a black wall, 96-well tissue culture plate and grown for 2 days. On the day of the experiment, one vial of FLIPR Calcium Assay Kit dye was re-suspended in 50 ml of a FLIPR buffer consisting of Hank's Balanced Salt Solution (HBSS), 20 mM HEPES, and 2.5 mM probenecid, pH 7.4. Cells were loaded with the calcium-sensitive dye by addition of an equal volume (50 μl) to each well of the 96-well plate and incubated with dye for 1 h at 23° C. Typically, test compounds were stored at […] in 50% DMSO/50% Ethanol solvent. Compounds were diluted 1:50 in 20% DMSO/20% Ethanol. For dose-response experiments, compounds were diluted 1:50 in FLIPR buffer and serially diluted 1:10 to give a 5- or 8-point dose-response curve.
(§3) At the beginning of an experimental run, a signal test was performed to check the basal fluorescence signal from the dye-loaded cells and the uniformity of the signal across the plate. The basal fluorescence was adjusted between 8000-12000 counts by modifying the exposure time, the camera F-stop, or the laser power. The instrument settings for a typical assay were as follows: laser power 0.3-0.6 W, camera F-stop F/2, and exposure time 0.4 sec. An aliquot (25 μl) of the test compound was added to the existing 100 μl dye-loaded cells at a dispensing speed of 50 μl/sec. Fluorescence data were collected in real-time at 1.0 sec intervals for the first 60 sec and at 6.0 sec intervals for an additional 120 sec. Responses were measured as peak fluorescence intensity minus basal and where appropriate were expressed as a percentage of a maximum 5-HT-induced response.

[3] = target: T3, human serotonin receptor clone 5-HT2B (Homo sapiens, UniProt P41595); assay: h5-HT2 functional assay, CHO-K1 aequorin luminescence (5-HT2B); type: cell-based; conditions: for Emax: CHO-K1, relative to the response of α-methyl-5-HT, read-out: h5-HT 2B (Emax); for EC50: CHO-K1 cells, aequorin, Gα16, read-out: h5-HT 2B EC50
T3 construct: expressed in transfected cells; host or cells: CHO-K1 cells stably expressing aequorin and Galpha16
Description: as §1

[4] = target: T4, human serotonin receptor clone 5-HT2A (Homo sapiens, UniProt P28223); assay: h5-HT2 functional assay, CHO-K1 aequorin luminescence (5-HT2A); type: cell-based; conditions: for Emax: CHO-K1, relative to the response of α-methyl-5-HT, read-out: h5-HT 2A (Emax); for EC50: CHO-K1 cells, aequorin, Gα16, read-out: h5-HT 2A EC50
T4 construct: expressed in transfected cells; host or cells: CHO-K1 cells stably expressing aequorin and Galpha16
Description: as §1

[5] = test system: Lasered (Hypertensive) Eyes of Conscious Cynomolgus Monkeys; assay: Acute IOP response in lasered (hypertensive) eyes of conscious cynomolgus monkeys; type: in vivo; conditions: for IOP change (mmHg): value in parentheses
Description: Acute IOP Response in Lasered (Hypertensive) Eyes of Conscious Cynomolgus Monkeys
Intraocular pressure (IOP) can be determined with an Alcon Pneumatonometer after light corneal anesthesia with 0.1% proparacaine. Eyes are washed with saline after each measurement. After a baseline IOP measurement, test compound is instilled in one 30 μL aliquot to the right eyes only of nine cynomolgus monkeys. Vehicle is instilled in the right eyes of six is additional animals. Subsequent IOP measurements are taken at 1, 3, and 6 hours.
The above method was used to determine the IOP lowering efficacy of Compound 1. All eyes were pretreated with 1 drop of 0.5% proparacaine to address discomfort.

[6] = target: T5, recombinant rat 5-HT2C receptor (Rattus norvegicus, UniProt P08909); assay: r5-HT2C functional assay: FLIPR, SR3T3 cells; type: cell-based; conditions: for EC50: FLIPR, SR3T3 cells expressing recombinant rat 5-HT2C, read-out: r5-HT 2C EC50; for Emax: SR-3T3, percentage of maximum 5-HT-induced response, SR3T3 cells, read-out: r5-HT 2C (Emax)
T5 construct: expressed in transfected cells; host or cells: SR3T3 cells
T5 sequence (P08909 33-460): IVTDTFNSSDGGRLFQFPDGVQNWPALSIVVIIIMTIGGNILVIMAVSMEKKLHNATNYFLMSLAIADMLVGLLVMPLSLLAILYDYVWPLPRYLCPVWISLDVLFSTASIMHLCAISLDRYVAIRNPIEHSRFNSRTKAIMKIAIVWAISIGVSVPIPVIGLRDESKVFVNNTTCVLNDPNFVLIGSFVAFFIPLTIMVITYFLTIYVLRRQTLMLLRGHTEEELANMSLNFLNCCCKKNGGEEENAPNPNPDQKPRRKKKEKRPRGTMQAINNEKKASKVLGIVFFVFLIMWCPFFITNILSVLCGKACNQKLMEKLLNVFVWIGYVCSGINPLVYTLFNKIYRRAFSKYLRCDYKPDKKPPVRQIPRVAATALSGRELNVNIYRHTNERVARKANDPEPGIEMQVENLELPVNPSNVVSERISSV
Description: as §2, §3
r5-HT2C Functional Assay: FLIPR
This assay were performed as for the r5-HT2A receptor above, except that SR3T3 cells expressing the recombinant rat 5-HT2C receptor were utilized.

[7] = dose 100 μg topical, 1 hr, baseline IOP 38.3 mmHg
[8] = dose 100 μg topical, 3 hr, baseline IOP 38.3 mmHg
[9] = dose 100 μg topical, 6 hr, baseline IOP 38.3 mmHg
[10] = dose 150 μg topical, 1 hr, baseline IOP 40.4 mmHg
[11] = dose 150 μg topical, 3 hr, baseline IOP 40.4 mmHg
[12] = dose 150 μg topical, 6 hr, baseline IOP 40.4 mmHg

T2 sequence (P14842 whole entry): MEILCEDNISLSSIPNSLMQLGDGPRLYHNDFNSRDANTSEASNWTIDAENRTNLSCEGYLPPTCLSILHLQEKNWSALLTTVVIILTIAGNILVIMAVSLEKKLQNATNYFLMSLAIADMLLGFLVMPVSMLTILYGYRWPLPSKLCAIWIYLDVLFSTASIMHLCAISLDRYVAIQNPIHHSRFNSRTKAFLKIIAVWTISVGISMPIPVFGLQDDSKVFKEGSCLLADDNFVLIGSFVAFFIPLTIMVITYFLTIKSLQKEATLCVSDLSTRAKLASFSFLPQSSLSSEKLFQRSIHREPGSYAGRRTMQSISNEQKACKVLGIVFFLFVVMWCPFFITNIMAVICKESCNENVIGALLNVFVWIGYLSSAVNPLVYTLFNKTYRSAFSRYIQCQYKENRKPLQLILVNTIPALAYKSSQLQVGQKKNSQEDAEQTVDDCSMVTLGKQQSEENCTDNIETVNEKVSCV
T4 sequence (P28223 whole entry): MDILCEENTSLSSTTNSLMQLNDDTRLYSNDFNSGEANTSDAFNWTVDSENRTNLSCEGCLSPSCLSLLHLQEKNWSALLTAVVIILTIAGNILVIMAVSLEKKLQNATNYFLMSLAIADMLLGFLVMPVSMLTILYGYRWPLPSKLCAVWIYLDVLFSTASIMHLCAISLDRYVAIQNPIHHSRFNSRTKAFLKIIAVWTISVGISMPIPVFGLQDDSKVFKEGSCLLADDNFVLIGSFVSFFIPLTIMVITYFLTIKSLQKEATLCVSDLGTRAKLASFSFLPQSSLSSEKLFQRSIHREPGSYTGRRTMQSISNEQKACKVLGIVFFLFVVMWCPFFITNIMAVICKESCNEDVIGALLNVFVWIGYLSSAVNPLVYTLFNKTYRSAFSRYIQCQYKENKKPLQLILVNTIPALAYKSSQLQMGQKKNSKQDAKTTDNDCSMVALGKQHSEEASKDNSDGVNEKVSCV
T3 sequence (P41595 whole entry): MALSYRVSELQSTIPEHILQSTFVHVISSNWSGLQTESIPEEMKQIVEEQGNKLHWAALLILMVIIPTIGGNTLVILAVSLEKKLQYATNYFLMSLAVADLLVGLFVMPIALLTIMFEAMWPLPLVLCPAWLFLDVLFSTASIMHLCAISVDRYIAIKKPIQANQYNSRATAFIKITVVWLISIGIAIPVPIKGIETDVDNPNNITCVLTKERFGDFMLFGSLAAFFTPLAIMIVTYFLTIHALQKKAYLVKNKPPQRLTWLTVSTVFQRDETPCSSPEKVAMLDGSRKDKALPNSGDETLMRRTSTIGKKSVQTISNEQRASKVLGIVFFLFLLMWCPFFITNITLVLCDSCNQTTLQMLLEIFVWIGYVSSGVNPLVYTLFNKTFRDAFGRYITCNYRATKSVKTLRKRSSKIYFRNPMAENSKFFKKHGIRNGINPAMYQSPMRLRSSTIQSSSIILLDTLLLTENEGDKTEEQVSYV

Row | SMILES | Emax [1] [%] | EC50 [1] [nM] | EC50 [2] [nM] | Emax [2] [%] | Emax [3] [%] | EC50 [3] [nM] | Emax [4] [%] | EC50 [4] [nM] | EC50 [6] [nM] | Emax [6] [%] | also measured
1 | COc1cccc(Cc2ccc3c(c2)CCNCC3)c1 [Example 1, 7-(3-Methoxy-benzyl)-2,3,4,5-tetrahydro-1H-benzo[d]azepine] | 105 | 1.1 | 386 | 39 | 87 | 390 | 102 | 1.5 | 82 | 100 | % IOP change [5, 7]: −16.5%; IOP change (mmHg) [5, 7]: (6.6) mmHg; % IOP change [5, 8]: −33.1%; IOP change (mmHg) [5, 8]: (13.1) mmHg; % IOP change [5, 9]: −42.5%; IOP change (mmHg) [5, 9]: (16.8) mmHg; % IOP change [5, 10]: −15.6%; IOP change (mmHg) [5, 10]: (6.1) mmHg; % IOP change [5, 11]: −29.5%; IOP change (mmHg) [5, 11]: (12.3) mmHg; % IOP change [5, 12]: −37.8%; IOP change (mmHg) [5, 12]: (15.6) mmHg
2 | Oc1cccc(Cc2ccc3c(c2)CCNCC3)c1 [Example 2, 3-(2,3,4,5-Tetrahydro-1H-benzo[d]azepin-7-ylmethyl)-phenol] | 109 | 8.8 | > 1000 | – | 35 | 1240 | 98 | 31 | 120 | 100 | –
3 | COc1cc(Cc2ccc3c(c2)CCNCC3)cc(OC)c1 [Example 3, 7-(3,5-Dimethoxy-benzyl)-2,3,4,5-tetrahydro-1H-benzo[d]azepine] | 105 | 20 | > 10000 | – | 6 | > 10000 | 104 | 16.9 | 629 | 70 | –
4 | COc1cccc(OCc2ccc3c(c2)CCNCC3)c1 [Example 6, 7-[(3-methoxyphenoxy)methyl]-2,3,4,5-tetrahydro-1H-3-benzazepine] | 107 | 3.9 | 69 | 35 | 61 | 417 | 105 | 0.4 | 91 | 89 | –
5 | Oc1cccc(OCc2ccc3c(c2)CCNCC3)c1 [Example 7, 3-(2,3,4,5-tetrahydro-1H-3-benzazepin-7-ylmethoxy)phenol] | – | – | 440 | 40 | – | – | – | – | 65 | 92 | –
6 | COc1cccc(COc2cc3c(cc2C)CCNCC3)c1 [Example 8, 7-[(3-methoxybenzyl)oxy]-8-methyl-2,3,4,5-tetrahydro-1H-3-benzazepine] | 101 | 4.5 | 1920 | 48 | 63 | 230 | 102 | 2.4 | 250 | 102 | –
